Source: patent US8486863B2, “Activators of lateral root formation” (VIB VZW, priority 2006, dated 2013)

Legend:
[1] = system: Wild-type Arabidopsis thaliana; assay: Dose-response analysis of lateral root density and root length; assay type: in vivo; settings: for compound concentration that increased root density five times compared to controls: 10 days after germination; for Root length: at the concentration that increased root density five times (20 μM A11, 1.5 μM NAA); for potency as activator of LR development (LR density): dose-response, FIG. 3
Experimental: FIG. 3: Dose-response analysis of class 1 (upper panel) and class 2 (lower panel) activators. Wild-type Arabidopsis thaliana seeds were germinated under standard conditions on agar plates. After 3 days of germination, seedlings were transferred to agar plates containing compound at different concentrations. Lateral root density was measured 10 days after germination. Bars represent standard errors.
FIG. 4: Dose-response analysis of A2, A11, A12, A14 and NAA. Wild-type Arabidopsis thaliana seeds were germinated under standard conditions on agar plates. After 3 days of germination, seedlings were transferred to agar plates containing compound at different concentrations and 1% DMSO. Plants transferred to agar plates containing 1% DMSO and no compound were used as controls. Lateral root density (left panels) and root length (right panels) were measured 10 days after germination. Bars represent standard errors.
For further phenotypic analysis, all plants were grown on vertically oriented square plates (Greiner Labortechnik, Austria) with solid medium derived from standard MS medium under the same conditions. 3 DAG plants were transferred to medium supplemented with compounds and were left to grow for another 7 days. After this, root length and number of LRs were counted using ImageJ 1.34 freeware.
As a subsequent step, the phenotypic effect of the 16 selected activators was determined in a dose-response analysis in which LR density (number of LRs per cm) was quantified (FIG. 3). Based upon potency and structure, two different classes of activators could be identified.

auxin signaling mutants [2] = assay: Effect of activators on lateral root density of auxin signaling mutants (Table 2); assay type: in vivo, Arabidopsis thaliana
From the text: (§1) Afb1, Afb2, Afb3 and the triple mutant Tirlafb2afb3 were described by Dhamasiri et al. (2005). Tir1 was described by Ruegger et al., (1998); 1aa28 by Rogg et al., (2001); Tir7-1 by Ruegger et al., (1997); the Cyp79b2b3 double mutant by Ljung et al. (2005); the arf7arf19 double mutant by Fukaki et al., (2005); Aux1 by Bennett et al., (1996); Xbat32 by Nodzon et al., (2004), Axr1-12 by Timpte et al., (1995), Slr1 by Fukaki et al., 2002 and Axr3-1 by Collet et al., (2000) and the mutants were obtained from the publishing authors.
(§2) For phenotypic analysis, all mutants were grown on vertically oriented square plates (Greiner Labortechnik, Austria) with solid medium derived from standard MS medium. The plates were put in a growth chamber under continuous light (110 μE.m2.s1 photosynthetically active radiation, supplied by cool-white fluorescent tungsten tubes; Osram) at 22° C. Three days after germination, the mutant plants were transferred to medium supplemented with compounds and were left to grow for another 7 days. After this, root length and number of lateral roots were counted using ImageJ 1.34 freeware.

[3] = system: genes involved in auxin biosynthesis, auxin transport, auxin signaling and cell cycle; assay: Q-PCR transcript profiling of roots after compound treatment; assay type: in vivo, Arabidopsis thaliana; settings: 30 μM; 6 hrs or 24 hrs treatment
Experimental: FIG. 5: Transcript profiling of roots of wild-type Arabidopsis thaliana plants after 6 hrs or 24 hrs treatment with A2 (upper panel), A14 (middle panel) or A11 (lower panel) at a concentration of 30 μM.
RNA was extracted with the RNeasy kit. Poly(dT) cDNA was prepared from […] of total RNA with Superscript III reverse transcriptase (Invitrogen) and quantified on an LightCycler 480 apparatus (Roche) with the SYBR Green I Master kit (Roche) according to the manufacturers instructions. Target quantifications were performed with specific primer pairs designed with the Beacon Designer 4.0 (Premier Biosoft International). All PCRs were performed in triplicate. […] The primers used to quantify gene expression levels were: […]
Using Q-PCR, the expression of selected genes involved in auxin biosynthesis, auxin transport, auxin signaling and cell cycle was analyzed in response to compound treatment (FIG. 5).

auxin signaling mutants [4] = assay: Effect of A12 and NAA on lateral root density and root length of auxin signaling mutants (Table 1); assay type: in vivo, Arabidopsis thaliana; parameters: Root length: unit not given here; settings: 3 uM
From the text: as §1, §2
DMSO is used as negative control.

[5] = tir TM (Tir1afb2afb3 triple mutant)

CN1C(=O)C(=Cc2ccc(-c3cccc(C(F)(F)F)c3)o2)SC1=S [A11, 3-methyl-2-thioxo-5-({5-[3-(trifluoromethyl)phenyl]-2-furyl}methylene)-1,3-thiazolidin-4-one]
compound concentration that increased root density five times compared to controls ([1]; FIG. 4): 20 µM
Root length [1]: 0.7 times the root length of controls
potency as activator of LR development (LR density) [1]: most potent activators of class 2
lateral root density (auxin signaling mutants [2]; Afb1-1, 30 uM): 20.74 LR/cm
lateral root density (auxin signaling mutants [2]; Afb2-1, 30 uM): 14.04 LR/cm
lateral root density (auxin signaling mutants [2]; Afb3-1, 30 uM): 12.99 LR/cm
lateral root density (auxin signaling mutants [2]; Arf7Arf19, 30 uM): 0.04 LR/cm
lateral root density (auxin signaling mutants [2]; Arf16, 30 uM): 8.76 LR/cm
lateral root density (auxin signaling mutants [2]; Arf17, 30 uM): 11.04 LR/cm
lateral root density (auxin signaling mutants [2]; Axrt-12, 30 uM): 12.26 LR/cm
lateral root density (auxin signaling mutants [2]; Cyp79, 30 uM): 13.74 LR/cm
lateral root density (auxin signaling mutants [2]; Iaa28-1, 30 uM): 10.36 LR/cm
lateral root density (auxin signaling mutants [2]; Tir1-1, 30 uM): 8.95 LR/cm
lateral root density (auxin signaling mutants [2]; Tir7-1, 30 uM): 43.59 LR/cm
lateral root density (auxin signaling mutants [2]; TirTM, 30 uM): 0.00 LR/cm
lateral root density (auxin signaling mutants [2]; Xbat32, 30 uM): 7.76 LR/cm
stage of LR initiation at which the effect on gene expression is exerted [3]: late stages of LR initiation (24 h)

O=C(O)Cc1cccc2ccccc12 [NAA, 1-naphthylacetic acid, reference compound]
Root length (auxin signaling mutants [4]; CDKB DN): 0.42
LR density (auxin signaling mutants [4]; Col-0): 52.98
Root length (auxin signaling mutants [4]; Col-0): 1.08
LR density (auxin signaling mutants [4]; Ws): 45.59
Root length (auxin signaling mutants [4]; Ws): 0.87
LR density (auxin signaling mutants [4]; Xbat32): 36.83
Root length (auxin signaling mutants [4]; Xbat32): 1.33
LR density (auxin signaling mutants [4]; afb1-1): 51.36
Root length (auxin signaling mutants [4]; afb1-1): 0.93
LR density (auxin signaling mutants [4]; afb2-1): 51.08
Root length (auxin signaling mutants [4]; afb2-1): 0.87
LR density (auxin signaling mutants [4]; afb3-1): 46.76
Root length (auxin signaling mutants [4]; afb3-1): 0.94
Root length (auxin signaling mutants [4]; arf7arf19 DM (double mutant)): 0.87
Root length (auxin signaling mutants [4]; aux1): 0.93
LR density (auxin signaling mutants [4]; axr1-12): 40.22
Root length (auxin signaling mutants [4]; axr1-12): 1.12
LR density (auxin signaling mutants [4]; axr5-1): 27.56
Root length (auxin signaling mutants [4]; axr5-1): 1.27
LR density (auxin signaling mutants [4]; cyp79b2-3 DM (double mutant)): 37.27
Root length (auxin signaling mutants [4]; cyp79b2-3 DM (double mutant)): 1.43
LR density (auxin signaling mutants [4]; iaa28-1): 48.10
Root length (auxin signaling mutants [4]; iaa28-1): 0.86
LR density (auxin signaling mutants [4]; lax3): 63.09
Root length (auxin signaling mutants [4]; lax3): 1.02
LR density (auxin signaling mutants [4]; msg2-1): 37.22
Root length (auxin signaling mutants [4]; msg2-1): 1.13
LR density (auxin signaling mutants [4]; slr-1): 0.00
Root length (auxin signaling mutants [4]; slr-1): 0.84
LR density (auxin signaling mutants [4]; tir1-1): 57.73
Root length (auxin signaling mutants [4]; tir1-1): 0.99
LR density (auxin signaling mutants [4]; tir7-1): 41.72
Root length (auxin signaling mutants [4]; tir7-1): 0.87
LR density (auxin signaling mutants [4]; [5]): 47.00
Root length (auxin signaling mutants [4]; [5]): 0.80
LR density response to increasing compound concentration ([1]; FIG. 4): threshold-like mechanism
compound concentration that increased root density five times compared to controls ([1]; FIG. 4): 1.5 µM
Root length [1]: 0.2 times the root length of controls
lateral root density (auxin signaling mutants [2]; Afb1-1, 0.1 uM): 13.49 LR/cm
lateral root density (auxin signaling mutants [2]; Afb1-1, 0.3 uM): 8.76 LR/cm
lateral root density (auxin signaling mutants [2]; Afb1-1, 1 uM): 21.43 LR/cm
lateral root density (auxin signaling mutants [2]; Afb1-1, 3 uM): 47.81 LR/cm
lateral root density (auxin signaling mutants [2]; Afb2-1, 0.1 uM): 14.57 LR/cm
lateral root density (auxin signaling mutants [2]; Afb2-1, 0.3 uM): 8.98 LR/cm
lateral root density (auxin signaling mutants [2]; Afb2-1, 1 uM): 28.72 LR/cm
lateral root density (auxin signaling mutants [2]; Afb2-1, 3 uM): 59.72 LR/cm
lateral root density (auxin signaling mutants [2]; Afb3-1, 0.1 uM): 15.27 LR/cm
lateral root density (auxin signaling mutants [2]; Afb3-1, 0.3 uM): 8.93 LR/cm
lateral root density (auxin signaling mutants [2]; Afb3-1, 1 uM): 27.72 LR/cm
lateral root density (auxin signaling mutants [2]; Afb3-1, 3 uM): 55.01 LR/cm
lateral root density (auxin signaling mutants [2]; Arf7Arf19, 0.1 uM): 0.00 LR/cm
lateral root density (auxin signaling mutants [2]; Arf7Arf19, 0.3 uM): 0.00 LR/cm
lateral root density (auxin signaling mutants [2]; Arf7Arf19, 1 uM): 0.17 LR/cm
lateral root density (auxin signaling mutants [2]; Arf7Arf19, 3 uM): 13.18 LR/cm
lateral root density (auxin signaling mutants [2]; Arf16, 0.1 uM): 8.05 LR/cm
lateral root density (auxin signaling mutants [2]; Arf16, 0.3 uM): 6.63 LR/cm
lateral root density (auxin signaling mutants [2]; Arf16, 1 uM): 10.83 LR/cm
lateral root density (auxin signaling mutants [2]; Arf16, 3 uM): 17.17 LR/cm
lateral root density (auxin signaling mutants [2]; Arf17, 0.1 uM): 6.57 LR/cm
lateral root density (auxin signaling mutants [2]; Arf17, 0.3 uM): 10.34 LR/cm
lateral root density (auxin signaling mutants [2]; Arf17, 1 uM): 0.47 LR/cm
lateral root density (auxin signaling mutants [2]; Arf17, 3 uM): 24.68 LR/cm
lateral root density (auxin signaling mutants [2]; Axrt-12, 0.1 uM): 8.04 LR/cm
lateral root density (auxin signaling mutants [2]; Axrt-12, 0.3 uM): 9.25 LR/cm
lateral root density (auxin signaling mutants [2]; Axrt-12, 1 uM): 9.03 LR/cm
lateral root density (auxin signaling mutants [2]; Axrt-12, 3 uM): 27.55 LR/cm
lateral root density (auxin signaling mutants [2]; Cyp79, 0.1 uM): 15.83 LR/cm
lateral root density (auxin signaling mutants [2]; Cyp79, 0.3 uM): 6.85 LR/cm
lateral root density (auxin signaling mutants [2]; Cyp79, 1 uM): 22.20 LR/cm
lateral root density (auxin signaling mutants [2]; Cyp79, 3 uM): 50.78 LR/cm
lateral root density (auxin signaling mutants [2]; Iaa28-1, 0.1 uM): 3.57 LR/cm
lateral root density (auxin signaling mutants [2]; Iaa28-1, 0.3 uM): 7.46 LR/cm
lateral root density (auxin signaling mutants [2]; Iaa28-1, 1 uM): 11.92 LR/cm
lateral root density (auxin signaling mutants [2]; Iaa28-1, 3 uM): 40.09 LR/cm
lateral root density (auxin signaling mutants [2]; Tir1-1, 0.1 uM): 5.14 LR/cm
lateral root density (auxin signaling mutants [2]; Tir1-1, 0.3 uM): 11.34 LR/cm
lateral root density (auxin signaling mutants [2]; Tir1-1, 1 uM): 6.74 LR/cm
lateral root density (auxin signaling mutants [2]; Tir1-1, 3 uM): 18.30 LR/cm
lateral root density (auxin signaling mutants [2]; Tir7-1, 0.1 uM): 15.76 LR/cm
lateral root density (auxin signaling mutants [2]; Tir7-1, 0.3 uM): 5.78 LR/cm
lateral root density (auxin signaling mutants [2]; Tir7-1, 1 uM): 14.79 LR/cm
lateral root density (auxin signaling mutants [2]; Tir7-1, 3 uM): 46.33 LR/cm
lateral root density (auxin signaling mutants [2]; TirTM, 0.1 uM): 8.04 LR/cm
lateral root density (auxin signaling mutants [2]; TirTM, 0.3 uM): 18.89 LR/cm
lateral root density (auxin signaling mutants [2]; TirTM, 1 uM): 15.81 LR/cm
lateral root density (auxin signaling mutants [2]; TirTM, 3 uM): 45.09 LR/cm
lateral root density (auxin signaling mutants [2]; Xbat32, 0.1 uM): 4.27 LR/cm
lateral root density (auxin signaling mutants [2]; Xbat32, 0.3 uM): 9.26 LR/cm
lateral root density (auxin signaling mutants [2]; Xbat32, 1 uM): 12.70 LR/cm
lateral root density (auxin signaling mutants [2]; Xbat32, 3 uM): 33.67 LR/cm

CCOC(=O)c1c(NC(=O)COc2ccc(Cl)cc2C)sc2c1CC(C)(C)OC2 [A2, ethyl 2-{[(4-chloro-2-methylphenoxy)acetyl]amino}-5,5-dimethyl-4,7-dihydro-5H-thieno[2,3-c]pyran-3-carboxylate]
potency as activator of LR development (LR density) [1]: most potent activators of class 2
lateral root density (auxin signaling mutants [2]; Afb1-1, 30 uM): 13.86 LR/cm
lateral root density (auxin signaling mutants [2]; Afb2-1, 30 uM): 10.07 LR/cm
lateral root density (auxin signaling mutants [2]; Afb3-1, 30 uM): 10.03 LR/cm
lateral root density (auxin signaling mutants [2]; Arf7Arf19, 30 uM): 0.00 LR/cm
lateral root density (auxin signaling mutants [2]; Arf16, 30 uM): 9.56 LR/cm
lateral root density (auxin signaling mutants [2]; Arf17, 30 uM): 8.67 LR/cm
lateral root density (auxin signaling mutants [2]; Axrt-12, 30 uM): 13.97 LR/cm
lateral root density (auxin signaling mutants [2]; Cyp79, 30 uM): 13.69 LR/cm
lateral root density (auxin signaling mutants [2]; Iaa28-1, 30 uM): 4.32 LR/cm
lateral root density (auxin signaling mutants [2]; Tir1-1, 30 uM): 11.98 LR/cm
lateral root density (auxin signaling mutants [2]; Tir7-1, 30 uM): 28.57 LR/cm
lateral root density (auxin signaling mutants [2]; TirTM, 30 uM): 0.00 LR/cm
lateral root density (auxin signaling mutants [2]; Xbat32, 30 uM): 9.67 LR/cm
stage of LR initiation at which the effect on gene expression is exerted [3]: early stages of LR initiation (6 h)
